Reference: patent EP0380897B1, “Pharmaceutical agents for female sterilization by way of intrauterine administration, and their therapeutical use” (priority 1989, dated 1990)
Where two headings read alike, the source gives them in different places.

Key:
[1] = system: utérus de rat; test: Potentiation of the occlusive effect of quinacrine in the rat uterus; format: in vivo; conditions: solutions of the order of 005 mg/ml (Figure 1: 50 mg/ml quinacrine + 0, 05 mg /ml)
Protocol: 4 mg de Bétaméthasone et 4 mg de Dexaméthasone ont été employé dans des groupes distincts de sujets. • 1 - 4 mg de Betaméthasone intra-musculaire Ce groupe incluait 90 sujets - 4 mg de Bethaméthasone ont été injectés lorsque le comprimé de quinacrine à 250 mg a été inséré. Ce procédé a été utilisé à nouveau avec le second comprimé (comprimé à 250 mg ayant un temps de dissolution de 100 mn). […] Les sujets ont achevé une année de suivi et ont représenté 1220 mois. […] Ce groupe incluait 65 sujets. […] Ces sujets ont effectué au total 830 mois de suivi. […] Ceci nous a conduit à faire des investigations sur la potentialisation possible des effets occlusifs de la quinacrine chez le rat dû à la betaméthasone. Cette méthode expérimentale est celle décrite pour d'autres substances (ref. Agent pharmacologique qui potentialisent ou inhibent l'action occlusivante de la quinacrine, dans le tube du lapin et dans l'utérus de rat cf J. ZIPPER-S.INSUNSA Female Stérilization - pronostic pour des techniques simplifiées pour le sujet ambulatoire Ed Gordon, W. Duncan, R.D. Falb et J. Joseph SPEIDEL (p 131-137), NEW YORK Acad. Press 1972 compte-rendu). La Betamethasone s'est révélée être active chez le rat, avec des solutions de l'ordre de 005 mg/ml. […]

[2] = system: trompes humaines; test: Clinical follow-up of pregnancies after non-surgical female sterilization with intrauterine quinacrine tablets, alone or with an anti-inflammatory adjuvant; format: in vivo, femmes; conditions: for taux de grossesse: quinacrine alone
Protocol: (§1) Ce symptôme est survenu chez 6 % des sujets dans les deux insertions ou seulement dans une seule. • b) un phénomène de fièvre de 38°C à 39,5°C apparaissant le surlendemain du jour d'insertion et durant de 1 à 4 jours, sans relation avec le mal de tête. Les deux symptômes sont corrélés chez seulement quelques sujets. La fièvre est apparue chez 5 % des cas (parfois lors de la première insertion et parfois lors de la seconde). Les autres complications ont été semblables à celles décrites dans l'article publié précédemment J. Zipper et al. Adv. in Contraception 3(1987)255. A la fin de l'année de suivi, le taux de grossesse a été de 3,0 pour 100 femmes et par an.
(§2) Un autre groupe utilisant la quinacrine seule a été constitué, qui a subi deux insertions intra-utérines avec des comprimés à 180 mg. Les insertions ont été séparées par un cycle menstruel - 190 sujets sont entrés dans cette étude. […] Chez un petit nombre de sujets seulement les deux symptômes ont été présents simultanément. La fièvre est apparue dans 3% des cas (pas nécessairement lors des deux insertions). Ce groupe a manifesté un taux de grossesse de 3 pour 100 femmes, et par an à la fin de la première année du suivi. Les deux groupes quinacrine (250 et 180 mg) ont été considéré comme des témoins pour les autres groupes qui ont reçu un anti-inflammatoire, un antipyrétique et des substances anti-prostagrandines.
4 mg de Bétaméthasone et 4 mg de Dexaméthasone ont été employé dans des groupes distincts de sujets. • 1 - 4 mg de Betaméthasone intra-musculaire Ce groupe incluait 90 sujets - 4 mg de Bethaméthasone ont été injectés lorsque le comprimé de quinacrine à 250 mg a été inséré. Ce procédé a été utilisé à nouveau avec le second comprimé (comprimé à 250 mg ayant un temps de dissolution de 100 mn). […] Les sujets ont achevé une année de suivi et ont représenté 1220 mois. […] Ce groupe incluait 65 sujets. […] Ces sujets ont effectué au total 830 mois de suivi. […] Ceci nous a conduit à faire des investigations sur la potentialisation possible des effets occlusifs de la quinacrine chez le rat dû à la betaméthasone. Cette méthode expérimentale est celle décrite pour d'autres substances (ref. Agent pharmacologique qui potentialisent ou inhibent l'action occlusivante de la quinacrine, dans le tube du lapin et dans l'utérus de rat cf J. ZIPPER-S.INSUNSA Female Stérilization - pronostic pour des techniques simplifiées pour le sujet ambulatoire Ed Gordon, W. Duncan, R.D. Falb et J. Joseph SPEIDEL (p 131-137), NEW YORK Acad. Press 1972 compte-rendu). La Betamethasone s'est révélée être active chez le rat, avec des solutions de l'ordre de 005 mg/ml. La base physiologique de cette action n'a pas été déterminée et aucun rapport à ce sujet n'a été publié (cf histologie de l'utérus de rat sous l'influence de 50 mg/ml de quinacrine + 0, 05 mg /ml Betamethasone Figure 1).
Ce groupe inclue 80 sujets. Lorque le comprimé de 250 mg est inséré, 4 mg de Dexamethatone sont injectés par voie intramusculaire. La méthode est réputée avec un second comprimé. […] Les sujets ont achevé 950 mois de suivi.
L'insertion est effectuée après que les comprimé aient été insérés. Ce groupe inclût 60 sujets. […] Ce groupe avait 850 mois de suivi.
La bétaméthasone et la Dexamethasone sont des stéroïdes ayant une activité puissante antiphlogistique, anti-inflammatoire et anti-oedemateuse au niveau cérébral et sont des adjuvants importants pour réduire les effets secondaires indésirables de la quinacrine lorsque cette substance est employée pour provoquer l'occlusion la région intra-murale des trompes humaines afin de réaliser une stérilisation pharmacologique. En outre, un mécanisme d'action qui n'est pas clair, semble renforcer l'action d'occlusion de la quinacrine à ce niveau. Le nombre total de sujets a été de 295 et a représenté 3850 mois/femmes d'observation. Seulement une grossesse a été détectée. […]

[3] = system: femmes; test: Clinical follow-up of side effects (fever, headache) after intrauterine insertion of quinacrine tablets, alone or with an anti-inflammatory adjuvant; format: in vivo
Protocol: as §1
as §2, with “anti-prostagrandines. […]” for “anti-prostagrandines.”
• 1 - Diclofenac sel de sodium - Cet important agent anti-inflammatoire et inhibiteur de synthèse de prostaglandine a été appliqué en une dose unique intramusculaire de 75 mg, lorsque le comprimé de quinacrine à 180 mg a été inséré. Deux insertions par sujet ont été effectuées, séparées par un cycle menstruel - 78 sujets ont été traités - 702 mois de suivi. […] Ce procédé a été utilisé à nouveau avec le second comprimé séparé par un cycle menstruel. […] Ce groupe incluait 85 sujets. Les sujets ont achevé 1190 mois de suivi. […] Cet agent antipyrétique anti-inflammatoire a été appliqué en une dose unique intramusculaire de 2 g lorsque le pellet de quinacrine à 180 mg (temps de dissolution 10 minutes) a été inséré. Deux insertions, séparées par un cycle mentruel ont été effectuées - 76 sujets ont été traités, 1064 mois de suivi. […] D'autres agents anti-inflammatoires , antiprostaglandine non stéroidiens comme le Piroxicam, Indomethacine, Ibuprogene, Naproxen ou d'autres peuvent être utilisés. La recherche avec quelques uns de ces agents est en développement. De même, la recherche avec les inhibiteurs de synthèse de prostaglandines appliqués par voie intrautérine ou intramusculaire une seule fois est en développement.

[4] = system: sujets; conditions: cited from earlier work
[5] = 50 mg tablets by the 'intra-urétine' route simultaneously with quinacrine tablets (180 mg, dissolution time 10 min), two insertions, 85 subjects, first seven days
[6] = single 75 mg intramuscular dose at each of two insertions of 180 mg quinacrine tablet, 78 subjects, first week
[7] = share of subjects after the first insertion of quinacrine (250 mg)
[8] = share of subjects after the third insertion of quinacrine (250 mg)

## C[C@H]1C[C@H]2[C@@H]3CCC4=CC(=O)C=C[C@]4(C)[C@@]3(F)[C@@H](O)C[C@]2(C)[C@@]1(O)C(=O)CO [Betaméthasone]
[1]
  potentialisation des effets occlusifs de la quinacrine: active
[2]; 4 mg intramuscular at each of two insertions of 250 mg quinacrine tablet, 90 subjects, 1220 months of follow-up, pregnancy in sixth month
  grossesse: Seulement une grossesse normotopique a été détectée
[2]; 4 mg intrauterine (solution in 1 ml) simultaneously with quinacrine tablet, 65 subjects, 830 months of follow-up
  grossesse: Aucune grossesse n'a été signalée

## O=C(O)Cc1ccccc1Nc1c(Cl)cccc1Cl [Diclofenac sel de sodium]
[3]; [5]
  fièvre: ni fièvre
  maux de tête: ni maux de tête
[3]; [6]
  fièvre: ni fièvre
  mal de tête: ni mal de tête
[2]; 50 mg tablets by the 'intra-urétine' route simultaneously with quinacrine tablets (180 mg, dissolution time 10 min), 85 subjects, 1190 months of follow-up
  grossesse: Aucune grossesse n'a été détectée
[2]; single 75 mg intramuscular dose at each of two insertions of 180 mg quinacrine tablet, 78 subjects, 702 months of follow-up
  grossesse: aucune grossesse n'a été détectée

## Cc1c(N(C)CS(=O)(=O)O)c(=O)n(-c2ccccc2)n1C [Dipyrone, metamizol sel de sodium]
[2]; single 2 g intramuscular dose at each of two insertions of 180 mg quinacrine pellet (dissolution time 10 min), 76 subjects, 1064 months of follow-up
  grossesse: aucune grossesse n'a été détectée

## CCN(CC)CCCC(C)Nc1c2ccc(Cl)cc2nc2ccc(OC)cc12 (stereo not shown) [quinacrine]
[4]; [7]
  fièvre: 10%
  maux de tête: 9%
[4]; [8]
  fièvre: 2%
  maux de tête: 10,2%
[2]; two insertions of 250 mg tablets, 209 subjects, 2544 months, end of the year of follow-up
  taux de grossesse: 3,0 pour 100 femmes et par an
[2]; two intrauterine insertions of 180 mg tablets, 190 subjects, end of first year of follow-up
  taux de grossesse: 3 pour 100 femmes, et par an
